Counter-ions that a name gives are not always drawn. Like-named read-outs stand apart in the source and are kept apart here.
How the values were obtained:
PPC-1 cells [1] = assay: MTT cell viability of PPC-1 cells treated with compound with or without CH-11 anti-FAS antibody; type: cell-based; conditions: for IC50: read-out: LD50 (μM) PPCl; for LD50 (μM) (PPCl, CH-11): PPC-1 cells with CH-11 100 ng/mL, MTT 24 hours, LD50 = concentration that reduces cell viability by 50%
Protocol: FIGS. 2A-C. […] PPC-1 cells (1×10^4) were seeded in 96 well plates. The next day, cells were treated with increasing concentrations of the sensitizing compounds with (open squares) and without (closed squares) CH-11 antibody (100 ng/mL). Cell viability was measured 24 hours later by MTT assay. Cell viability is expressed as a mean percentage of untreated cells+SD (n=3). The Chembridge identification numbers of the compounds are provided.
High throughput screening. […] PPC-1 cells (1×10^4) were seeded overnight into 96 well, flat-bottom plates (Costar, Cambridge, Mass.) in 100 μL of medium containing 2.5% FCS. […] CH-11 antibody (100 ng/mL) was then added, and the cells were incubated for 24 hours before assessing cell viability by a 3-(4,5-Dimethylthiazol-2-yl)-2,5-diphenyltetrazolium Bromide (MTT) dye reduction assay (Sigma).
Cell death assays. […] Absorbance readings were plotted against a standard curve to derive the corresponding cell number, and cell viability was expressed as a percentage relative to untreated cells.

FLIP = FLIP protein levels by SDS-PAGE/immunoblotting; type: cell-based, human; conditions: PPC-1 cells
Protocol: FIG. 7. Effect of FAS-sensitizing compounds on levels of FLIP protein and DISC activation. (A) PPC-1 cells (2×10^5) were seeded into 35 mm plates and treated the next day with various FAS-sensitizing compounds (30 μM), with (+) or without (−) CH-11 antibody (100 ng/mL). As a positive control, cells were treated with CDDO (5 μM). Cell lysates were prepared 24 hours later, normalized for total protein content, and analyzed by SDS-PAGE/immunoblotting using antibodies specific for FLIP or a-tubulin. (B) PPC-1, OVCAR-3, T47D, MDA-MB-468 and DU 145 cells (2×10^5) were seeded into 35 mm plates and treated the next day with 5809354 (40 μM). Cell lysates were prepared 24 hours after treatment, normalized for total protein and analyzed by SDS-PAGE/immunoblotting using antibodies specific for FLIP or β-actin. (C) PPC-1, OVCAR-3, T47D, and DU 145 cells (2×10^5) were seeded into 35 mm plates and treated the next day with 5809354 (40 μM) (black bars) or buffer control (white bars). mRNA was extracted 24 hours after treatment. Levels of the long isoform of FLIP and GAPDH were detected by quantitative RT-PCR. Levels of FLIP were normalized for GAPDH expression and expressed as a mean fold change+SD over buffer treated cells. (D) PPC-1 cells (2×10^5) were seeded into 35 mm plates and treated the next day with various FAS-sensitizing compounds (30 μM) with (+) or without (−) CH-11 (100 ng/mL). Cell lysates were prepared 24 hours after treatment, normalized for total protein, and analyzed by SDS-PAGE/immunoblotting using antibodies specific for caspase-8 and β-actin.
(§1) FIG. 13. Small molecule down-regulation of FLIP sensitizes prostate cancer cells to anoikis. (A) PPC-1 cells were seeded overnight in adherent conditions and then treated with increasing concentrations of 5809354 for 16 hours. After incubation, cells were harvested. Total cellular RNA was extracted and mRNA levels of the long isoform of FLIP (FLIPL), the short isoform of FLIP (FLIPS), or rRNA levels of 18S were detected by real-time RT-PCR. Data were normalized using the ΔΔCT method and expressed as the mean±SEM percent of […] expression relative to untreated controls. (B) PPC-1 cells were cultured and treated as in panel A. Total cellular protein was isolated and analyzed by SDS-PAGE immunoblotting using anti-FLIP and anti-Actin antibodies. (C) PPC-1 cells were seeded overnight in adherent conditions and then exposed to increasing concentrations of 5809354 in the presence or absence of Fas-activating antibody (CH-11, 100 ng/mL). Thirty hours after incubation, cell viability was determined using the MTS assay. Data represents the mean±SEM of percent of viable cells. (D) PPC-1 cells were seeded overnight in adherent or suspension conditions and then treated with increasing concentrations of 5809354 for 30 hours. After incubation, apoptosis was measured by flow cytometry to detect cell surface annexin V expression and PI. Data represents the mean±SEM of percent of viable cells. (E) Cells were harvested, fixed, stained with DAPI, and nuclear morphology analyzed by fluorescence microscopy. Arrowheads refer to fragmented nuclei indicative of apoptosis. […] Thirty hours after incubation, cells were harvested and equal volumes plated in a colony formation assay. One week later, cells were stained with methylene blue and the number of colonies counted. Data represents the mean ±SEM percent of colonies relative to untreated controls.
Immunoblot analysis. Protein extracts were obtained by washing cells with phosphate-buffered saline (PBS) [pH 7.4] and suspending the cells in lysis buffer [10 mM Tris (pH 7.4), 150 mM NaCl, 0.1% Triton X-100, 0.5% sodium deoxycholate, and 5 mM EDTA] containing protease inhibitors (Complete tablets; Roche, Indianapolis, Ind.). Immunoblot assays were performed as described in Carter et al. (2005). […]

PPC-1 cells [2] = assay: Anoikis of PPC-1 cells in suspension versus adherent conditions (annexin V/PI, DAPI, colony formation); type: cell-based, human
Protocol: FIG. 12. Depletion of endogenous FLIP levels by siRNA sensitizes malignant cells to anoikis. (A) PPC-1 cells were seeded in adherent conditions overnight and then transfected with 25 nM anti-FLIP siRNA (siFLIP) or control luciferase siRNA (siCtrl). Thirty hours after transfection, cells were harvested, total protein isolated and analyzed by SDS-PAGE immunoblotting using anti-FLIP and anti-actin antibodies. (B) PPC-1 cells were transfected with increasing concentrations of siFLIP or siCtrl. After transfection, cells were treated with CH-11 Fas activating antibody (100 ng/ml). Thirty hours after incubation, cells were harvested and apoptosis measured by flow cytometry to detect cell surface annexin V expression and PI uptake. Data represents the mean±SEM percent of viable cells. (C) PPC-1 cells were transfected with increasing concentrations of siFLIP or siCtrl. After transfection, cells were subcultured under suspension conditions for 30 hours and then harvested. Apoptosis was measured by flow cytometry to detect cell surface annexin V expression and PI uptake. Data represents the mean±SEM of percent of viable cells. (D) Equal volumes of PPC-1 cells from panel C were replated under adherent conditions to permit clonogenic growth. One week after replating, cells were stained with methylene blue and the number of colonies counted. Data represents the mean±SEM percent of colonies compared to untreated controls.
as §1
FIG. 15. 5809354 sensitizes cells to anoikis through a caspase 8 dependent mechanism. (A) PPC-1 cells (5×10^4) were cultured under suspension conditions overnight and then treated with 5809354 in the presence or absence of the pan-caspase inhibitor z-VAD-fink (100 μM). Thirty hours after incubation, anoikis was determined by flow cytometry to detect cell surface annexin V expression and PI uptake. Data represents the mean±SEM percent of viable cells or colonies compared to untreated controls. (B) PPC-1 cells (5×10^4) were cultured in suspension conditions overnight and then treated with 5809354 (60 μM). […]

PPC-1 cells [3] = assay: MTS viability of adherent PPC-1 cells with or without CH-11, thirty hours; type: cell-based, human; conditions: CH-11 100 ng/mL
Protocol: FIG. 13. Small molecule down-regulation of FLIP sensitizes prostate cancer cells to anoikis. (A) PPC-1 cells were seeded overnight in adherent conditions and then treated with increasing concentrations of 5809354 for 16 hours. After incubation, cells were harvested. Total cellular RNA was extracted and mRNA levels of the long isoform of FLIP (FLIPL), the short isoform of FLIP (FLIPS), or rRNA levels of 18S were detected by real-time RT-PCR. Data were normalized using the ΔΔCT method and expressed as the mean±SEM percent of […] expression relative to untreated controls. (B) PPC-1 cells were cultured and treated as in panel A. Total cellular protein was isolated and analyzed by SDS-PAGE immunoblotting using anti-FLIP and anti-Actin antibodies. […] Thirty hours after incubation, cell viability was determined using the MTS assay. […] After incubation, apoptosis was measured by flow cytometry to detect cell surface annexin V expression and PI. […] (E) Cells were harvested, fixed, stained with DAPI, and nuclear morphology analyzed by fluorescence microscopy. […] One week later, cells were stained with methylene blue and the number of colonies counted. […]
Cell viability apoptosis, colony formation, and caspase activation assays. Cell viability was assessed using the MTS reduction assay (Promega, Madison, Wis., USA) according to the manufacturer's protocols and as described in Schimmer et al. (2006). […]

[4] = Homo sapiens, PPC-1, 24 h, PPC-1 cells, compound alone without CH-11, MTT 24 hours

SMILES: C/C(CC(=O)Nc1ccc(Cl)c(C(F)(F)F)c1)=N\NC(=O)c1cnccn1 [N-(4-Chloro-3-trifluoromethyl-phenyl)-3-[(pyrazine-2-carbonyl)-hydrazono]-butyramide]
- IC50 (PPC-1 cells [1]; [4]): 67 ± 3 µM
- LD50 (μM) (PPCl, CH-11) (PPC-1 cells [1]): 11 ± 3 µM

SMILES: CC(=O)CC(=O)Nc1cc(C(F)(F)F)ccc1Cl [N-[2-chloro-5-(trifluoromethyl)phenyl]-3-oxobutanamide]
- IC50 (PPC-1 cells [1]; [4]): 75 ± 1 µM
- LD50 (μM) (PPCl, CH-11) (PPC-1 cells [1]): 65 ± 5 µM

SMILES: O=C(CCc1ccccc1)Nc1cc(C(F)(F)F)ccc1Cl [N-[2-chloro-5-(trifluoromethyl)phenyl]-3-phenylpropanamide]
- IC50 (PPC-1 cells [1]; [4]): > 100 µM
- LD50 (μM) (PPCl, CH-11) (PPC-1 cells [1]): >100 µM

SMILES: O=C(CCc1ccccc1)Nc1ccc(Cl)cc1C(F)(F)F [N-[4-chloro-2-(trifluoromethyl)phenyl]-3-phenylpropanamide]
- IC50 (PPC-1 cells [1]; [4]): > 100 µM
- LD50 (μM) (PPCl, CH-11) (PPC-1 cells [1]): >100 µM

SMILES: O=C(CCc1ccccc1)Nc1ccc(Cl)c(C(F)(F)F)c1 [N-[4-chloro-3-(trifluoromethyl)-phenyl]-3-phenyl-proionamide]
- IC50 (PPC-1 cells [1]; [4]): 85 ± 3 µM
- LD50 (μM) (PPCl, CH-11) (PPC-1 cells [1]): 11 ± 1 µM

SMILES: O=C(Nc1ccc(Cl)c(C(F)(F)F)c1)c1cccs1 [N-[4-chloro-3-(trifluoromethyl)phenyl]-2-thiophenecarboxamide]
- IC50 (PPC-1 cells [1]; [4]): 96 ± 1 µM
- LD50 (μM) (PPCl, CH-11) (PPC-1 cells [1]): 35 ± 11 µM

SMILES: CC(C)(C)c1cc(C(=O)Cn2c(=N)n(CCN3CCCCC3)c3ccccc32)cc(C(C)(C)C)c1O.Cl [compound 5529457, 1-(3,5-di-tert-butyl-4-hydroxyphenyl)-2-(2-imino-3-(2-(piperidin-1-yl)ethyl)-2,3-dihydro-1H-benzo[d]imidazol-1-yl)ethanone hydrochloride]
- IC50 (PPC-1 cells [1]; [4]): 7.5 µM
- LD50 (μM) (PPCl, CH-11) (PPC-1 cells [1]): 3.7 µM

SMILES: Cn1c(=N)n(CC(=O)c2cc(C(C)(C)C)c(O)c(C(C)(C)C)c2)c2ccccc21 [compound 5541203, 1-(3,5-di-tert-butyl-4-hydroxyphenyl)-2-(2-imino-3-methyl-2,3-dihydro-1H-benzo[d]imidazol-1-yl)ethanone hydrobromide]
- IC50 (PPC-1 cells [1]; [4]): 45 µM
- EC50 (PPC-1 cells [1]; Homo sapiens, PPC-1, with anti-FAS antibody, read-out: EC50 as a FAS-sensitizer in PPC1 cells): 25.7 µM
- LD50 (μM) (PPCl, CH-11) (PPC-1 cells [1]): 25.7 µM
- IC50 (PPC-1 cells [1]; PPC-1 cells, compound alone without CH-11, MTT 24 hours; hydrobromide)): 45.4 µM
- levels of FLIP protein (FLIP; 30 μM, with or without CH-11, 24 hours, long isoform): had little effect

SMILES: Br.Cc1ccc(Cn2c(=N)n(CC(=O)c3cc(C(C)(C)C)c(O)c(C(C)(C)C)c3)c3ccccc32)cc1 [compound 5651311, 1-(3,5-di-tert-butyl-4-hydroxyphenyl)-2-(2-imino-3-(4-methylbenzyl)-2,3-dihydro-1H-benzo[d]imidazol-1-yl)ethanone hydrobromide]
- IC50 (PPC-1 cells [1]; [4]): 19 µM
- LD50 (μM) (PPCl, CH-11) (PPC-1 cells [1]): 9 µM

SMILES: Br.CC(C)(C)c1cc(C(=O)Cn2c(=N)n(Cc3ccccc3)c3ccccc32)cc(C(C)(C)C)c1O [compound 5657593, 2-(3-benzyl-2-imino-2,3-dihydro-1H-benzo[d]imidazol-1-yl)-1-(3,5-di-tert-butyl-4-hydroxyphenyl)ethanone hydrobromide]
- IC50 (PPC-1 cells [1]; [4]): 9.1 µM
- LD50 (μM) (PPCl, CH-11) (PPC-1 cells [1]): 3.4 µM

SMILES: O=C(Cc1ccc(Cl)cc1)N1CCN(C/C=C/c2ccccc2)CC1 [compound 5703229, 1-[(4-chlorophenyl)acetyl]-4-[(2e)3-phenylprop-2-enyl]piperazine]
- IC50 (PPC-1 cells [1]; Homo sapiens, PPC-1, 24 h): 50 µM
- LD50 (μM) (PPCl, CH-11) (PPC-1 cells [1]): 34+4 μM

SMILES: CCOCCCNC(=O)CCCOc1ccc(Cl)cc1C [compound 7271570, (4-(4-chloro-2-methylphenoxy))-N-(3-ethoxypropyl)-butanamide]
- sensitization to anoikis (PPC-1 cells [2]; suspension conditions, 30 hours): failed to sensitize
- colony formation after suspension culture (PPC-1 cells [2]; thirty hours in suspension, colonies counted one week later): inactive
- viability in the presence of Fas-activating antibody (CH-11) (PPC-1 cells [3]): failed to sensitize
- FLIP protein expression (FLIP; Example 2, increasing concentrations, 16 hours): failed to decrease FLIP levels

Reference: patent US8008354B2, “Death receptor sensitizing compounds and methods of use therefor” (Burnham Institute for Medical Research, priority 2006, dated 2011)
